The numbers were not newly measured in US10844102B2, “Peptides, compositions, and methods for stimulating subcutaneous adipogenesis” (The Regents of the University of California, priority 2014, dated 2020), which cites them from elsewhere.

The data set has as its system adipogenesis. The conditions noted are these: earlier reports, WO 2014/082042 and background; cited from earlier work.

Turning to “KSEVSK (listed as Homo sapiens) [reference compound]”, the adipogenic activity result is recorded as “strongly adipogenic”.
